The record followed here is patent US20230241159A1, “Peptide Having Mesenchymal Stem Cell Mobilizing Activity” (StemRIM Inc., priority 2020, published 2023).

Series [1] has as its system inflammatory bowel disease (IBD) model mice. Nature of the series: Dextran sulfate sodium (DSS)-induced inflammatory bowel disease (IBD) model mice. The series is classed as in vivo, BALB/c mice. Here is the method:
Dextran sodium sulfate (DSS) (molecular weight 36,000 to 50,000, manufactured by MP Biomedicals, Product No. 160110) was dissolved in purified water to prepare a 2.5% (w/v) DSS aqueous solution. In addition, the peptide 1r10 (TFA salt) consisting of the amino acid sequence of SEQ ID NO: 1 was chemically synthesized by the solid phase method and used as the test substance.
BALB/c mice (9 weeks old, male) were allowed to drink the 2.5% DSS aqueous solution freely for 7 days to induce colitis. After that, the drinking was changed from DSS to tap water, and the large intestine was collected 3 days later (10 days after the start of drinking the DSS aqueous solution).
The IBD model mice prepared as described above were divided into the peptide 1r10 administration group (n=8) and the control group (n=8). Peptide administration was carried out by injecting into the tail vein, the peptide 1r10 solution adjusted to a concentration of 0.5 mg/mL using physiological saline as a solvent at an amount of 10 mL/kg on Days 1, 4, 7, 8 and 9 after the start of drinking the DSS aqueous solution (peptide dose of 5 mg/kg). The control group was injected with physiological saline solution at a dose of 10 mL/kg into the tail vein on Days 1, 4, 7, 8 and 9 after the start of drinking the DSS aqueous solution.
For 10 days from the start of drinking the DSS aqueous solution, the mice were weighed and observed for the symptoms (stool condition and bleeding) every day except Saturdays, Sundays, and holidays, and the degree of symptoms was evaluated by calculating the DAI (disease activity index) score. The DAI score was calculated by scoring the weight loss rate, stool condition, and stool bleeding as shown in the table below, and summing the scores of these three items. The scoring criteria were partly based on the method of Li et al. (PLoS One. 2015 Dec. 7; 10 (12): e0144101).
In addition, the length of the large intestine (from the colon to the rectum) collected 10 days after the start of drinking DSS was measured using a digital caliper.

Series [2] has as its system cerebral infarction model rat. Put plainly: Cerebral infarction model rat (right MCA occlusion), cerebral infarction volume ratio. The series is classed as in vivo, Crl:CD (SD) rats. The conditions noted are these: 2 mg/kg tail vein at 105 minutes and 24 hours after right MCA occlusion; 48 hours after occlusion; control 34.1±1.1%; p<0.01. An excerpt:
Crl:CD (SD) rats (7 weeks old, male) were obtained from Charles River Laboratories, Japan, and after 6 days of acclimation, they were divided into the control group (n=8) and the peptide-administered group (n=8). On the following day of grouping, the rats were fixed in the supine position under 2% isoflurane inhalation anesthesia (anesthesia background: laughing gas:oxygen=7:3). To regulate body temperature during surgery, a thermometer probe connected to a digital thermometer was inserted into the rectum, and changes in the rectal temperature before and after surgery were monitored. […]
Forty-eight hours after the right MCA occlusion, the animals were decapitated under anesthesia with sodium pentobarbital (50 mg/kg, intraperitoneal administration), and the entire brain was excised to prepare brain sections with a thickness of 2 mm. […] The resulting photographs were subjected to image analysis to obtain actual measurements of the cerebral infarction area and cross-sectional area of the brain, and the cerebral infarct volume and the total brain volume from 4 mm anterior to bregma to 6 mm posterior to bregma were calculated using the calculation formula below. In addition, the cerebral infarction volume ratio was calculated from the cerebral infarction volume and the total volume of the brain (cerebral infarction volume ratio (%)=cerebral infarction volume/total brain volume x 1001. […]

The test system of series [3] is atopic dermatitis model mice. Nature of the series: MC903-induced atopic dermatitis model mice. It is filed as in vivo, C57BL/6 mice. An excerpt: MC903 (generic name: Calcipotriol) was used to induce atopic dermatitis (hereinafter, also referred to as “AD”) in mice. In addition, the peptide 1r10 (TFA salt) described in Reference Example 1 was used as the test substance.
C57BL/6 mice (C57BL/6 JJcl, 7-8 weeks old, male, microbial grade SPF) were obtained from Japan Claire Co., Ltd., acclimated in the animal breeding room for 5 days or more, and then subjected to the following experiments. An ethanol-adjusted MC903 solution was applied to the skin of the auricle of the mice at a dose of 2.25 nmol MC903/ear/once/day five times a week for 2 weeks (ten times in total) to induce atopic dermatitis (AD). This MC903-induced AD model is a model in which AD-like pathology can be reproduced in a short period of time (1-2 weeks) by artificially inducing the secretion of TSLP from epithelial cells, which is actually seen in AD patients, thereby eliciting a series of type 2 immune response cascades (Li M et al., Proc Natl Acad Sci USA. 2006; 103:11736-41.).
They were then divided into the control group and the peptide administration group (n=7 in each group), while the groups were equalized based on the auricle thickness in consideration of the difference in the severity of inflammation between individuals. For peptide administration, the solution of peptide 1r10 adjusted to 0.3 mg/mL with physiological saline was injected into the tail vein at a volume of 5 mL/kg ([…]) twice in total, once on the grouping day (Day 15) and once during the following 4 days (Day 16 to Day 19). For the control group a solution of bovine serum albumin (BSA) adjusted to 0.3 mg/mL with physiological saline was injected into the tail vein at a volume of 5 mL/kg (BSA dose of 1.5 mg/kg) twice in total, once on the grouping day (Day 15) and once during the following 4 days (Day 16 to Day 19).
During the peptide administration period (Day 15 to Day 19), ear swellings were measured daily to determine edema. Scaling, which is the main symptom of AD, was determined by photography (three times a week) using a digital camera (E-Ml II; Olympus) from a fixed base at a height of 13-14 cm from the auricle.
On the 4th day (Day 19) after the start of peptide administration, mice were placed under the influence of isoflurane anesthesia and euthanized with cervical spine dislocation. The skin at auricular inflammation site and its surroundings was quickly excised and collected while on ice to prevent protein denaturation of the sample. After removing excess hair and skin with tweezers, the collected auricular skin was immersed in 10% formalin and fixed at 4° C. overnight while shaking on ice using a shaker. After fixation, the skin was thoroughly washed with phosphate buffered saline (PBS) and trimmed, and then a paraffin block was made using an automatic embedding device (Excelsior ES; Thermo Scientific) with attention to the tissue polarity in the dorsoventral axis/left-right axis specific to the skin). Then, it was sliced (5 μm thick) with a rotary microtome (HM 325; Thermo Scientific), fixed on a slide glass, and subjected to various staining. As pathological analysis, skin thickness and infiltration of immune cells were evaluated by histochemical staining and fluorescent immunostaining, respectively.
To quantitatively evaluate the healing condition of the site of inflammation, hematoxylin-eosin (HE) staining of the paraffin thin sections (5 μm thick) of skin tissue generated as described above was performed to measure the dermal thickness. Specifically, three sections were prepared for each individual, and each section was photographed with a microscope (Keyence BZ-X710) at one site each of the center of inflammation, head side, and tail side (that is, a total of 9 sites were photographed per individual). […]

For the next series, the system named is mesenchymal stem cells. Nature of the series: Solid-phase culture of peripheral blood after administration of HMGB1 peptide 1-44 (earlier experiments of the inventors). It is filed as in vivo. An excerpt:
In addition, the colonies obtained as a result of culturing, on a solid phase, peripheral blood after administration of a peptide consisting of amino acid residues 1-44 of the human HMGB1 protein (hereinafter, HMGB1 peptide 1-44), which has an activity of mobilizing mesenchymal stem cells into peripheral blood, have been confirmed to have adherability to solid phase and self-renewal ability, and to be PDGFRα positive. They have also been confirmed to have a gene expression profile characteristic to mesenchymal stem cells, based on the results of clustering the transcriptome analysis data and performing gene ontology analysis.

Where [4] appears, read: 5 mg/kg tail vein, 8 to 10 days after the start of drinking DSS, versus saline control.

Consider “1r10: artificial sequence peptide consisting of the amino acid sequence of SEQ ID NO: 1 (30 amino acids) (IMWLCQYFFQCHKCAVKKKTWKEKKDRRHP) [Peptide 1r10]”, for which the “body weight 10 days after the start of drinking the DSS aqueous solution” value in series [1] (5 mg/kg tail vein on Days 1, 4, 7, 8 and 9, Day 10) was “showed a tendency to recover body weight”. Moreover, the “changes in mouse body weight during the test period” value in series [1] (5 mg/kg tail vein on Days 1, 4, 7, 8 and 9 after start of drinking DSS, versus saline control) is given as “the degree of decrease was slower in the peptide-administered group than in the control group”. Also, in series [1] (setting [4]), the “DAI (disease activity index) score” value is recorded as “lower in the peptide-administered group than in the control group”; the “stool score (sum of stool condition score and bleeding score)” value is recorded as “lower in the peptide-administered group than in the control group”. The “colon length (length of the large intestine)” value in series [1] (5 mg/kg tail vein, ten days after the start of drinking DSS, versus saline control) is given as “longer than that of the control group”. Moreover, the “cerebral infarction volume ratio (mean±standard error)” value in series [2] is 27.2±1.2%. Further, in series [3] (1.5 mg/kg tail vein twice, 4th day after start of administration (Day 19), HE staining, versus control), the dermis thickness result is on record as “statistically significant decrease in dermis thickness”. The “scaling in the auricle” value in series [3] (1.5 mg/kg tail vein twice, 4 days after start of peptide administration, versus BSA control) is on record as “reduction of scaling in the auricle was observed”. Moreover, the “number of CD45-positive cells (infiltration of immune cells) in auricular skin sections” value in series [3] (1.5 mg/kg tail vein twice, Day 19, high power field 400×, versus control) was “statistically significant decrease in the number of CD45-positive cells”. In series [3] (1.5 mg/kg tail vein twice, peptide administration period Day 15 to Day 19, versus BSA control), the “auricular thickness (edema)” value is “statistically significant reduction in auricular thickness”. The “changes in mouse body weight during the period of the study” value in series [3] (Day 15 to Day 19, between peptide and control groups, p>0.05, repeated one-way ANOVA) is “not significantly different between the groups”. Moreover, in series [3] (dose of 0.5 mg/kg, versus control (data not shown)), the dermis thickness entry is given as “statistically significant decrease in dermis thickness”.
In the case of “HMGB1 peptide 1-44: peptide consisting of amino acid residues 1-44 of the human HMGB1 protein (MGKGDPKKPRGKMSSYAFFVQTCREEHKKKHPDASVNFSEFSKK; UniProt P09429 1-44, looked up, fragment)”, the “number of colonies obtained by solid-phase culture of peripheral blood, versus physiological saline” value in the series on mesenchymal stem cells is “larger in the peripheral blood after administration of HMGB1 peptide 1-44 than in the peripheral blood after administration of physiological saline”.
